In patent publication US6531510B1, “N,N′-bis(2-hydroxybenzyl)ethylenediamine-N,N′-diacetic acid in iron chelating therapy” (University of Florida Research Foundation, Inc., priority 1998, dated 2003):
Structures can show the parent of a compound that is named as a salt.

How the values were obtained:
Water solubility = assay type: physicochemical
[1] = tested on: Cebus apella monkeys with iron overload; conditions: cited from earlier work
human patients = conditions: oral; cited from earlier work
[2] = typical, background statement; cited from earlier work
[3] = tested on: iron-loaded Cebus apella monkeys; test: Chelator-induced iron excretion (iron-balance study) in iron-loaded Cebus apella monkeys; assay type: in vivo; conditions: s.c., 150 μmoles/Kg; for efficiency of iron chelation: mean
Experimental: After intramuscular anesthesia with ketamine, an intravenous infusion was started in a leg vein. […] Two to three infusions, separated by between 10 and 14 days, were necessary to provide about 500 mg iron per Kg body weight. […] At least twenty half-lives, sixty days, passed before using any of the animals in experiments evaluating iron-chelating agents.
Seven days before the administration of the drug, the animals were placed in metabolic cages and started on a low-iron liquid diet. The monkeys were maintained on the low-iron liquid diet for the duration of the experiment. They were given food according to their body weight, and intake was very carefully monitored.
Three days prior to drug administration, day −2 to day 0, baseline iron intake and output values were measured. This same measurement was made for day +1 to day +3. The total amount of iron intake was compared with the total amount of iron excreted.
Fecal and urine samples were collected at 24 hour intervals. The collections began four days prior to the administration of the test drug and continued for an additional five days after the drug was given. Fecal samples were assayed for the presence of occult blood, weighed, and mixed with distilled deionized water prior to autoclaving for 30 minutes. The mixture was then freeze-dried, and a known portion of the powder was mixed with low-iron nitric acid and refluxed for 24 hours. Once any particulate matter in the digested samples was removed by centrifugation, iron concentrations were determined by flame atomic absorption. Monkey urine samples were acidified and reconstituted to initial volume after sterilization, if necessary.
In the primates, DFOM was administered s.c. in sterile water for injection at a dose of 150 μmoles/Kg, while HBED was first dissolved in a phosphate buffer, ph 7.4, thus forming the mono-sodium salt and given s.c. in 40% wt./vol. Cremophor RH40 at a dose of 75 or 150 μmoles/Kg. In addition, in order to more closely mimic clinical applications in patients, mono-sodium HBED was also given to the monkeys s.c. at a dose of 150 μmoles/Kg in a phosphate buffer; no Cremophor vehicle was used.
The efficiency of each chelator was calculated on the basis of a 1:1 ligand-iron complex.
Groups of monkeys (n=6 in each group) were given s.c. injections of either DFOM or MS HBED. […] In our initial experiments, HBED monohydrochloride monohydrate was dissolved in a phosphate buffer at p.7.2 to form a solution of the MS HBED and administered in 40% wt./vol. […] HBED monohydrochloride monohydrate-Cremophor was administered by s.c. injection at doses of 75 or 150 μmoles/Kg.

Cl.O.O=C(O)CN(CCN(CC(=O)O)Cc1ccccc1O)Cc1ccccc1O [HBED monohydrochloride monohydrate]
water solubility (Water solubility): low water solubility

O=C(O)CN(CCN(CC(=O)O)Cc1ccccc1O)Cc1ccccc1O [HBED, N,N′-bis(2-hydroxybenzyl)ethylenediamine-N,N′-diacetic acid]
chelator-induced iron excretion ([1]; oral, phosphate buffer, previously published study): 50±44 μg Fe/Kg body weight
share of chelator-induced iron excretion in the stool ([1]; oral, phosphate buffer): about 56%
share of chelator-induced iron excretion in the urine ([1]; oral, phosphate buffer): about 44%
efficiency of iron chelation ([1]; oral, phosphate buffer, mean): 0.5±0.5%
level of iron excretion for treatment of iron overload (human patients): ineffective

CC(=O)N(O)CCCCCNC(=O)CCC(=O)N(O)CCCCCNC(=O)CCC(=O)N(O)CCCCCN [DFOM, desferrioxamine B mesylate]
activity in the Cebus apella monkey screen compared with oral HBED or its dimethyl ester ([1]; DFOM subcutaneous vs HBED or dimethyl ester oral): significantly higher activity
share of the compound administered that binds iron [2]: ≤ 5%
share of chelator-induced iron excretion in the stool ([3]; aqueous solution): about 65%
share of chelator-induced iron excretion in the urine ([3]; aqueous solution): about 35%
chelator-induced iron excretion ([3]; aqueous solution, n=6): 435±115 μg Fe/Kg body weight
efficiency of iron chelation ([3]; aqueous solution): 5.1±1.3%

O=C([O-])CN(CCN(CC(=O)O)Cc1ccccc1O)Cc1ccccc1O.[Na+] [MS HBED, HBED, monosodium salt]
mean net iron excretion, phosphate buffer vs Cremophor preparation ([3]; P>0.2): no significant difference
share of chelator-induced iron excretion in the stool ([3]; phosphate buffer): about 92%
share of chelator-induced iron excretion in the urine ([3]; phosphate buffer): about 8%
iron excretion relative to DFOM ([3]; phosphate buffer vs DFOM s.c. 150 μmoles/Kg, P<0.001): about twice
chelator-induced iron excretion ([3]; phosphate buffer, no Cremophor): 899±193 μg Fe/Kg body weight
efficiency of iron chelation ([3]; phosphate buffer): 10.7±2.3%
